As usually defined, the IC50 is the concentration at which inhibition is half-maximal.

Drawing on patent US8431563B2 (priority 2010, dated 2013), this text covers EC50 and IC50 for 20 compounds.

The target of test [1] is T1, GKRP (Glucokinase Regulatory Protein) with human His-hepatic GK (Homo sapiens, UniProt Q14397).
T1 sequence (Q14397 1-625): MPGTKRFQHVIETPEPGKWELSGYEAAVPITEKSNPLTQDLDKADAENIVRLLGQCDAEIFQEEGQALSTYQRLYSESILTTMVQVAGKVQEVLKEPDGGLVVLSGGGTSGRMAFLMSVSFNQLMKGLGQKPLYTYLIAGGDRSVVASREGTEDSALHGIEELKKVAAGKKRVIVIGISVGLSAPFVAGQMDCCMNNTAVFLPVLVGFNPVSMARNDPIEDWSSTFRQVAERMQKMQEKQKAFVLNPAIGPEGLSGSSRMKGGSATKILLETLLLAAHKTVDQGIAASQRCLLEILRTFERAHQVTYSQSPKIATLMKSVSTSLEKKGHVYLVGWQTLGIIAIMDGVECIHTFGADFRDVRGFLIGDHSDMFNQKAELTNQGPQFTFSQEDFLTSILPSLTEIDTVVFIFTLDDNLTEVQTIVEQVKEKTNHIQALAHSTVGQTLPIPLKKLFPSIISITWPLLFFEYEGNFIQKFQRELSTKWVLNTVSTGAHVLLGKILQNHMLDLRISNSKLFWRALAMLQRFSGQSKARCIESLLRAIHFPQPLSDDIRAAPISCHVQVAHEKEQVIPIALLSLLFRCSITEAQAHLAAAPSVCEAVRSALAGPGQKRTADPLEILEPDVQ
Nature of the test: biochemical. Put shortly: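 Product formation, 13C-glucose-6-phosphate from 13C-glucose, was measured directly by LC MS/MS after acetonitrile quench. The GK reaction ran 30 min at room temperature in Tris pH 7.5 buffer with 4 mM MgCl2 and 6% DMSO. The 5× enzyme stock was 30 nM His-tagged human hepatic glucokinase.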

Test [2] concerns the target T2, interaction between glucokinase (GK) and glucokinase regulatory protein (GKRP) (Homo sapiens, UniProt Q14397).
T2 sequence (Q14397 1-625): T1 sequence (Q14397 1-625)
Kind of test: biochemical. The format is binding. Put shortly: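 Measures direct GK–GKRP binding in 20 mM Tris pH 7.5 containing 1 μM sorbitol-6-phosphate, 0.05% BSA and 1 mM DTT. Compound and avi-tagged GKRP sit 20 min at room temperature before GK-fluorescein addition (6 nM in the added buffer); read after 2 h dark incubation at room temperature.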

The mark [3] stands for this setting: read-out: GK-GKRP EC50 (LC MS/MS-2).
Setting [4] is: read-out: GK-GKRP IC50 (Binding).
Setting [5] is: 13C-glucose-6-phosphate formation, 280 nM GKRP (10×), 30 nM GK (5×), read-out: GK-GKRP EC50 (LC MS/MS-2).
The mark [6] stands for this setting: avi-tagged GKRP, GK-fluorescein, AlphaScreen beads, read-out: GK-GKRP IC50 (Binding).

Where two headings read alike, the source gives them in different places.

For `CC(O)(c1ccc(N2CCN(S(=O)(=O)c3cccs3)C[C@@H]2CSc2ccccc2)cc1)C(F)(F)F` (mixture of isomers) [Example 186, 1,1,1-trifluoro-2-(4-((2R)-2-((phenylsulfanyl)methyl)-4-(2-thiophenylsulfonyl)-1-piperazinyl)phenyl)-2-propanol], the EC50 in test [1] (setting [3]) turned out to be 24 nM. In addition, the IC50 in test [2] (setting [4]) is 14 nM.

`C[C@@H](C[C@H]1CN(S(=O)(=O)c2cccs2)CCN1c1ccc([C@](C)(O)C(F)(F)F)cc1)NC1COC1` (racemic) [Example 148, 1,1,1-trifluoro-2-(4-((2S)-2-(2-(3-oxetanylamino)propyl)-4-(2-thiophenylsulfonyl)-1-piperazinyl)phenyl)-2-propanol]: in test [1] (GK-GKRP EC50 (LC MS/MS-2)), the EC50 came to 529 nM. Moreover, the IC50 in test [2] (GK-GKRP IC50 (Binding)) amounted to 1120 nM.

Turning to `CC(C)N(C[C@H]1CN(S(=O)(=O)c2cccs2)CCN1c1ccc(C(C)(O)C(F)(F)F)cc1)S(=O)(=O)c1cccnc1` (mixture of isomers) [Example 198, N-(1-methylethyl)-N-(((2R)-4-(2-thiophenylsulfonyl)-1-(4-(2,2,2-trifluoro-1-hydroxy-1-methylethyl)phenyl)-2-piperazinyl)methyl)-3-pyridinesulfonamide], the EC50 in test [1] (setting [5]) was 177 nM. Further, the IC50 in test [2] (setting [6]) turned out to be 108 nM.

In the case of `CC1(O)C[C@H]2COC[C@@H](C1)N2C[C@H]1CN(S(=O)(=O)c2cccs2)CCN1c1ccc(C(C)(O)C(F)(F)F)cc1` (stereo partly drawn) [Example 108, (1R,5S)-7-methyl-9-(((2S)-4-(2-thiophenylsulfonyl)-1-(4-(2,2,2-trifluoro-1-hydroxy-1-methylethyl)phenyl)-2-piperazinyl)methyl)-3-oxa-9-azabicyclo[3.3.1]nonan-7-ol (endo)], the EC50 in test [1] (setting [5]) is 45 nM. For the same compound, the IC50 in test [2] (setting [6]) was 27 nM.

`CC(O)(c1ccc(N2CCN(S(=O)(=O)c3cccs3)CC2CN2C3COCC2C(O)C3)cc1)C(F)(F)F` (single isomer, unassigned) [Example 77 Peak #3]: the EC50 in test [1] (setting [5]) is 58 nM. Moreover, the IC50 in test [2] (setting [6]) amounted to 29 nM.

For `Nc1ccc(S(=O)(=O)N2CCN(c3ncc(C(O)(C(F)(F)F)C(F)(F)F)cn3)[C@@H](CN3C4COCC3CC(O)C4)C2)cn1` (stereo partly drawn) [Example 99 nonan-7-ol (endo), 9-(((2S)-4-((6-amino-3-pyridinyl)sulfonyl)-1-(5-(2,2,2-trifluoro-1-hydroxy-1-(trifluoromethyl)ethyl)-2-pyrimidinyl)-2-piperazinyl)methyl)-3-oxa-9-azabicyclo[3.3.1]nonan-7-ol (endo)], the EC50 in test [1] (setting [5]) was 25 nM. The IC50 in test [2] (setting [6]) was 3 nM.

On to `CN(C[C@H]1CN(S(=O)(=O)c2cccs2)CCN1c1ccc(C(C)(O)C(F)(F)F)cc1)S(C)(=O)=O` (mixture of isomers) [Example 208, N-methyl-N-(((2S)-4-(2-thiophenylsulfonyl)-1-(4-(2,2,2-trifluoro-1-hydroxy-1-methylethyl)phenyl)-2-piperazinyl)methyl)methane sulfonamide], for which the EC50 in test [1] (setting [5]) was 234 nM. In test [2] (setting [6]), the IC50 amounted to 112 nM.

Regarding `CC(O)(c1ccc(N2CCN(S(=O)(=O)c3cccs3)C[C@@H]2CN2C3COCC2C(O)C3)cc1)C(F)(F)F` (stereo partly drawn) [Example 77, 8-(((2S)-4-(2-thiophenylsulfonyl)-1-(4-(2,2,2-trifluoro-1-hydroxy-1-methylethyl)phenyl)-2-piperazinyl)methyl)-3-oxa-8-azabicyclo[3.2.1]octan-6-ol (endo)], in test [1] (setting [5]), the EC50 is 31 nM. Further, the IC50 in test [2] (setting [6]) was found to be 28 nM.

Consider `CC1(C)C(=O)NCCN1C[C@H]1CN(S(=O)(=O)c2cccs2)CCN1c1ccc(C(C)(O)C(F)(F)F)cc1` (mixture of isomers) [Example 180, 3,3-dimethyl-4-(((2S)-4-(2-thiophenylsulfonyl)-1-(4-(2,2,2-trifluoro-1-hydroxy-1-methylethyl)phenyl)-2-piperazinyl)methyl)-2-piperazinone], for which the EC50 in test [1] (setting [5]) amounted to 51 nM. Besides, in test [2] (setting [6]), the IC50 is 22 nM.

Regarding `CC(C)C1C(=O)NCCN1C[C@H]1CN(S(=O)(=O)c2cccs2)CCN1c1ccc(C(C)(O)C(F)(F)F)cc1` (single isomer, unassigned) [Example 181 Peak #1], in test [1] (setting [5]), the EC50 was 63 nM. In addition, the IC50 in test [2] (setting [6]) came to 43 nM.

As to `CN(C)C(=O)CC1COCCN1C[C@H]1CN(S(=O)(=O)c2cccs2)CCN1c1ccc(C(C)(O)C(F)(F)F)cc1` (mixture of isomers) [Example 114, N,N-dimethyl-2-(4-(((2S)-4-(2-thiophenylsulfonyl)-1-(4-(2,2,2-trifluoro-1-hydroxy-1-methylethyl)phenyl)-2-piperazinyl)methyl)-3-morpholinyl)acetamide], in test [1] (setting [5]), the EC50 came to 124 nM. Further, the IC50 in test [2] (setting [6]) turned out to be 90 nM.

Turning to `C[C@H]1CN(S(=O)(=O)c2ccc(N)s2)CCN1c1ccc(C(C)(O)C(F)(F)F)cc1` (mixture of isomers) [Example 139, 2-(4-((2S)-4-((5-amino-2-thiophenyl)sulfonyl)-2-methyl-1-piperazinyl)phenyl)-1,1,1-trifluoro-2-propanol], the EC50 in test [1] (setting [5]) was determined as 370 nM. The IC50 in test [2] (setting [6]) worked out at 630 nM.

With `CC(O)(c1ccc(N2CCN(S(=O)(=O)c3cccs3)C[C@@H]2CN(Cc2ccccc2)S(C)(=O)=O)cc1)C(F)(F)F` (mixture of isomers) [Example 220, N-benzyl-N-(((2S)-4-(2-thiophenylsulfonyl)-1-(4-(2,2,2-trifluoro-1-hydroxy-1-methylethyl)phenyl)-2-piperazinyl)methyl)methanesulfonamide], the EC50 in test [1] (setting [5]) worked out at 15 nM. Further, in test [2] (setting [6]), the IC50 was 3 nM.

On to `CC(O)(c1ccc(N2CCN(S(=O)(=O)c3cccs3)C[C@@H]2CN2CCOC[C@H]2CO)cc1)C(F)(F)F` (single isomer, unassigned) [Example 110 Peak #2], for which the EC50 in test [1] (setting [3]) was determined as 132 nM. Besides, the IC50 in test [2] (setting [4]) came out at 79 nM.

With `O=S(=O)(c1ccccc1)N1CCN(c2ncc(C(O)(C(F)(F)F)C(F)(F)F)cn2)[C@@H](CN2C3COCC2C(O)C3)C1` (mixture of isomers) [Example 80, 8-(((2S)-4-(phenylsulfonyl)-1-(5-(2,2,2-trifluoro-1-hydroxy-1-(trifluoromethyl)ethyl)-2-pyrimidinyl)-2-piperazinyl)methyl)-3-oxa-8-azabicyclo[3.2.1]octan-6-ol], the EC50 in test [1] (setting [5]) was 136 nM. Moreover, the IC50 in test [2] (setting [6]) was found to be 125 nM.

For `CN(C[C@H]1CN(S(=O)(=O)c2cccs2)CCN1c1ccc(C(C)(O)C(F)(F)F)cc1)S(=O)(=O)c1cccnc1` (mixture of isomers) [Example 217, N-methyl-N-(((2S)-4-(2-thiophenylsulfonyl)-1-(4-(2,2,2-trifluoro-1-hydroxy-1-methylethyl)phenyl)-2-piperazinyl)methyl)-3-pyridinesulfonamide], the EC50 in test [1] (setting [5]) turned out to be 752 nM. Moreover, in test [2] (setting [6]), the IC50 stood at 407 nM.

For the compound `CC(O)(c1ccc(N2CCN(S(=O)(=O)c3cccs3)C[C@@H]2COCC2CCCO2)cc1)C(F)(F)F` (mixture of isomers) [Example 118, 1,1,1-trifluoro-2-(4-((2R)-2-((tetrahydro-2-furanylmethoxy)methyl)-4-(2-thiophenylsulfonyl)-1-piperazinyl)phenyl)-2-propanol], in test [1] (setting [5]), the EC50 came to 1110 nM. Further, the IC50 in test [2] (setting [6]) stood at 570 nM.

In test [1] (GK-GKRP EC50 (LC MS/MS-2)), `CC(O)(c1ccc(N2CCN(S(=O)(=O)c3cccs3)C[C@@H]2CN2CCOCC2CNS(C)(=O)=O)cc1)C(F)(F)F` (single isomer, unassigned) [Example 112 Peak #2] yielded an EC50 of 332 nM. The same compound displayed an IC50 in test [2] (GK-GKRP IC50 (Binding)) of 210 nM.

In the case of `CC(O)(c1ccc(N2CCN(S(=O)(=O)c3cccs3)C[C@@H]2CN(C2CC2)S(C)(=O)=O)cc1)C(F)(F)F` (mixture of isomers) [Example 200, N-cyclopropyl-N-(((2R)-4-(2-thiophenylsulfonyl)-1-(4-(2,2,2-trifluoro-1-hydroxy-1-methylethyl)phenyl)-2-piperazinyl)methyl)methanesulfonamide], the EC50 in test [1] (setting [5]) turned out to be 39 nM. The IC50 in test [2] (setting [6]) came to 26 nM.

As to `O=S(=O)(c1cccs1)N1CCN(c2ncc(C(O)(C(F)(F)F)C(F)(F)F)cn2)[C@@H](CN2C3COCC2C(O)C3)C1` (single isomer, unassigned) [Example 79 Peak #2], the EC50 in test [1] (setting [5]) amounted to 73 nM. Also, the IC50 in test [2] (setting [6]) was found to be 32 nM.
